Measurements as given in the supplement of paper PMC10307832.

Each cell line was assayed with CC1=CC(=C(N1C2=CC=C(C=C2)Cl)C)C(=O)CN3CCCCC3 [IU1-47] + O=C(c1cc(Cc2n[nH]c(=O)c3ccccc23)ccc1F)N1CCN(C(=O)C2CC2)CC1 [Olaparib] (partner 8 µM) (assay: relative viability (nuclei count vs DMSO), 5 days (fraction); higher = more cells survive). Settings: first compound 8 µM.
How it was run: (§1)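 Five library-drug doses in √10 steps were combined with a fixed anchor-drug dose, or a single drug was given alone, by pin tool to lung cancer cell lines in 1536-well plates the day after seeding. Nuclei were stained and counted after 5 days. Relative viability is the nuclei count in treated wells over that in vehicle wells, taken as the median of duplicate plates.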

Cell Line | relative viability
NCI-H1944 | 0.427
NCI-H1975 | 0.78
RERF-LC-KJ | 0.789

These cell lines were tested with Cc1nc(C(=O)NCC(=O)O)c(O)c2ccc(Oc3ccccc3)cc12 [FG-4592] + Nc1ncn([C@H]2C[C@H](O)[C@@H](CO)O2)c(=O)n1 [Decitabine] (partner 2 µM) in the same assay as above. Settings: first compound 0.08 µM.
How it was run: as §1

Cell Line | relative viability
HCC-44 | 0.902
LU99A | 0.842
BEN | 0.649
HCC-78 | 0.666
LCLC-97TM1 | 0.218
A-427 | 0.535
NCI-H441 | 0.235
NCI-H1734 | 0.519
NCI-H460 | 0.448
NCI-H2347 | 0.665
NCI-H1395 | 0.766
201T | 0.865
NCI-H1915 | 0.271
HCC-827 | 0.376
LXF-289 | 0.425
NCI-H23 | 0.322

Cell Line | relative viability
NCI-H647 | 0.347
NCI-H1651 | 0.713
EPLC-272H | 0.417
NCI-H1792 | 0.508
NCI-H1355 | 0.355
NCI-H3122 | 0.405
NCI-H1437 | 0.576
NCI-H1755 | 0.697
HCC-15 | 0.677
PC-14 | 0.193
EKVX | 0.325
LC-2-ad | 0.804
NCI-H1944 | 0.422
NCI-H1975 | 0.378
RERF-LC-KJ | 0.811

Same assay, conditions: first compound 0.253 µM

Cell Line | relative viability
HCC-44 | 0.941
LU99A | 0.796
BEN | 0.651
NCI-H322M | 0.658
LCLC-97TM1 | 0.209
A-427 | 0.558
NCI-H441 | 0.255
NCI-H1734 | 0.463
NCI-H460 | 0.461
NCI-H2347 | 0.523
NCI-H1395 | 0.677
201T | 0.839
NCI-H1915 | 0.28
HCC-827 | 0.28
LXF-289 | 0.386
NCI-H23 | 0.268

Cell Line | relative viability
NCI-H647 | 0.326
NCI-H1651 | 0.603
EPLC-272H | 0.302
NCI-H1792 | 0.485
NCI-H1355 | 0.297
NCI-H3122 | 0.476
NCI-H1437 | 0.512
NCI-H1755 | 0.773
HCC-15 | 0.585
NCI-H1793 | 0.476
PC-14 | 0.243
EKVX | 0.368
LC-2-ad | 0.66
NCI-H1944 | 0.446
NCI-H1975 | 0.363
RERF-LC-KJ | 0.697

Same assay, conditions: first compound 0.8 µM

Cell Line | relative viability
HCC-44 | 0.914
BEN | 0.555
HCC-78 | 0.694
NCI-H322M | 0.714
A-427 | 0.503
NCI-H441 | 0.234
NCI-H1734 | 0.53
NCI-H460 | 0.51
NCI-H2347 | 0.629
NCI-H1395 | 0.75
201T | 0.842
NCI-H1915 | 0.284
HCC-827 | 0.319
LXF-289 | 0.35
NCI-H23 | 0.334
NCI-H647 | 0.341
NCI-H1651 | 0.703
EPLC-272H | 0.304
NCI-H3122 | 0.332
NCI-H1437 | 0.606
NCI-H1755 | 0.736
HCC-15 | 0.606
PC-14 | 0.213
EKVX | 0.287
LC-2-ad | 0.755
NCI-H1944 | 0.415
NCI-H1975 | 0.426
RERF-LC-KJ | 0.76

Same assay, conditions: first compound 2.53 µM

Cell Line | relative viability
HCC-44 | 0.93
LU99A | 0.906
BEN | 0.738
HARA | 0.676
HCC-78 | 0.652
NCI-H322M | 0.638
LCLC-97TM1 | 0.217
A-427 | 0.558
NCI-H441 | 0.232
NCI-H1734 | 0.489
NCI-H460 | 0.482
NCI-H2347 | 0.581
NCI-H1395 | 0.686
201T | 0.859
NCI-H1915 | 0.255
HCC-827 | 0.334
LXF-289 | 0.378

Cell Line | relative viability
NCI-H23 | 0.265
NCI-H647 | 0.372
NCI-H1651 | 0.668
EPLC-272H | 0.368
NCI-H1792 | 0.525
NCI-H1355 | 0.378
NCI-H3122 | 0.48
NCI-H1437 | 0.632
NCI-H1755 | 0.679
HCC-15 | 0.661
NCI-H1793 | 0.55
PC-14 | 0.195
EKVX | 0.319
LC-2-ad | 0.853
NCI-H1944 | 0.436
NCI-H1975 | 0.406
RERF-LC-KJ | 0.81

Same assay, conditions: first compound 8 µM

Cell Line | relative viability
HCC-44 | 1
LU99A | 0.795
BEN | 0.607
HARA | 0.559
HCC-78 | 0.562
NCI-H322M | 0.725
LCLC-97TM1 | 0.173
A-427 | 0.567
NCI-H441 | 0.25
NCI-H1734 | 0.458
NCI-H460 | 0.51
NCI-H2347 | 0.613
NCI-H1395 | 0.614
201T | 0.878
NCI-H1915 | 0.252
HCC-827 | 0.328
LXF-289 | 0.305

Cell Line | relative viability
NCI-H23 | 0.267
NCI-H647 | 0.227
NCI-H1651 | 0.499
EPLC-272H | 0.382
NCI-H1792 | 0.484
NCI-H1355 | 0.307
NCI-H3122 | 0.362
NCI-H1437 | 0.534
NCI-H1755 | 0.689
HCC-15 | 0.765
NCI-H1793 | 0.398
PC-14 | 0.226
EKVX | 0.341
LC-2-ad | 0.837
NCI-H1944 | 0.388
NCI-H1975 | 0.404
RERF-LC-KJ | 0.667
